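Results reflect a 48-hour exposure of cells in 96-well plates to compound at five concentrations. At the GI50, growth is halved. At the TGI there is no net growth.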

Among the test systems are 786-0 renal; A549 NSCLC; CCRF-CEM leukemia; HCC-2998 colon; MALME-3M melanoma; NCI/ADR-RES ovarian; RPMI-8226 leukemia; SW-620 colon; UACC-257 melanoma; UO-31 renal.
Experiment in all cases: NCI anticancer screen, dose series, 48 h

On to `OCCNC1c2cc(Cl)ccc2-c2c(Cl)cc(Cl)cc21` (centres undefined), for which the TGI was above 100000 nM in the assay with 786-0 renal; above 100000 nM in the assay with A549 NSCLC; 47400 nM with CCRF-CEM leukemia; above 100000 nM in the assay on HCC-2998 colon; above 100000 nM with MALME-3M melanoma; above 100000 nM with NCI/ADR-RES ovarian. Moreover, the TGI with RPMI-8226 leukemia, in the assay on SW-620 colon, in the assay with UACC-257 melanoma and in the assay with UO-31 renal was above 100000 nM each time.
For the molecule `CC1OC(OC2C(O)CC(OC3C(O)CC(OC4CCC5(C)C(CCC6C5CC(O)C5(C)C(C7=CC(=O)OC7)CCC65O)C4)OC3C)OC2C)CC(O)C1O` (centres undefined), the GI50 is 41 nM in the assay on 786-0 renal; 18.7 nM in the assay on A549 NSCLC; 35.8 nM with CCRF-CEM leukemia; 146 nM in the assay on HCC-2998 colon; 37.3 nM in the assay on MALME-3M melanoma; 38.5 nM with NCI/ADR-RES ovarian. The GI50 in the assay with RPMI-8226 leukemia is 92.1 nM; with SW-620 colon, 42.3 nM; with UACC-257 melanoma, 126 nM; in the assay on UO-31 renal, 37.7 nM. Moreover, the TGI with 786-0 renal was 162 nM; with A549 NSCLC, 35.6 nM; with CCRF-CEM leukemia it was 245 nM; in the assay on HCC-2998 colon, 451 nM; with MALME-3M melanoma, 160 nM; with NCI/ADR-RES ovarian it was 145 nM. Also, the TGI stood at 165 nM in the assay on SW-620 colon, 256 nM in the assay with UACC-257 melanoma and 148 nM in the assay with UO-31 renal.

The values are drawn from PubChem BioAssay (NCI).
